Values of other authors, collected in patent US10052339B2, “Methods and compositions for treating symptoms of diseases related to imbalance of essential fatty acids” (BODYBIO INC, priority 2014, dated 2018).
pKi: −log10 of the molar value.

Legend:
CB2 receptor = CB2 receptor (Homo sapiens, UniProt P34972)
CB1 cannabinoid receptor = CB1 cannabinoid receptor (Homo sapiens, UniProt P21554)
Chain of CB1 cannabinoid receptor (P21554 whole entry): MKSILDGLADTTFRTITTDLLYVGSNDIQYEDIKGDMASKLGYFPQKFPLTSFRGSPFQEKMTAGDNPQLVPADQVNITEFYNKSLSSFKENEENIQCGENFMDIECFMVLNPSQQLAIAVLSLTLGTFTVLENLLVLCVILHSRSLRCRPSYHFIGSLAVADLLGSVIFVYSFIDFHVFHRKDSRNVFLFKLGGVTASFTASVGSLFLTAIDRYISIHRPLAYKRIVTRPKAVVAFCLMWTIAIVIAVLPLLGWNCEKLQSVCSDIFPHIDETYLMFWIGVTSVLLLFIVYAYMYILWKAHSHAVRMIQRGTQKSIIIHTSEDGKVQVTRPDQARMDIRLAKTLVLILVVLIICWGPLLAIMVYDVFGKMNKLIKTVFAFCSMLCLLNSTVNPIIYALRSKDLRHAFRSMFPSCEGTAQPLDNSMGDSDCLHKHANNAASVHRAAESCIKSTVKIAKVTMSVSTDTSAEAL

Chain of CB2 receptor (P34972 whole entry): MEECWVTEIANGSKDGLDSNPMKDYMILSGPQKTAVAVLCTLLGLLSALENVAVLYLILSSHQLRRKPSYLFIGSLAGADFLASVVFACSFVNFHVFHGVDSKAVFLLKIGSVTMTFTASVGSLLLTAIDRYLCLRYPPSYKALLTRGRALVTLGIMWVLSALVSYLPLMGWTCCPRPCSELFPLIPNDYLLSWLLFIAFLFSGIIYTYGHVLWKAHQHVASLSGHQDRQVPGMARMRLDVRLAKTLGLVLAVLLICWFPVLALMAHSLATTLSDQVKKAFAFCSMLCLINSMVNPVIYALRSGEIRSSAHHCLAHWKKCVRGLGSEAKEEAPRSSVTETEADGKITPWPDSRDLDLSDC

## CCCCC/C=C\C/C=C\C/C=C\C/C=C\CCCCOC(CO)CO [Noladin ether, 2-arachidonyl glyceryl ether]
mice
  effects caused in mice: sedation, hypothermia, intestinal immobility, and mild antinociception
CB2 receptor
  binding to the CB2 receptor: only weakly
CB1 cannabinoid receptor
  pKi: 7.67
